# Laboratory results from patent publication US5140018A, “1,3,2-benzodithiazole-1-oxide compounds” (Abbott Laboratories, priority 1991, dated 1992).
# Where two headings read alike, the source gives them in different places.
# Experiments:
# [1] = system: Cryptococcus albidus ATCC 34140; assay: In vitro antifungal MIC, Cryptococcus albidus ATCC 34140; type: cell-based; settings: Naganishia albida
# Procedure: (§1) The in vitro antifungal activity of the compounds of the present invention against a variety of fungiwas determined as follow: Test medium was prepared by dissolving first 5 g of dextrose and then 6.7 g of Bacto Yeast Nitrogen Base® (commercially available from Difco Laboratories) in 100 mL of distilled water. The solution was filter-sterilized and diluted 1:10 with 0.01M pH 8.0 phosphate buffer solution, and the final pH of the medium adjusted to about pH 7.0 when necessary with either 0.1N hydrochloric acid solution of 0.1N sodium hydroxide solution. […] These concentrated stock solutions were diluted to a concentration of 200 μg/mL (twice the highest concentration desired for testing) with the test medium. Amphotericin B, similarly prepared, was used as a reference antifungal agent.
# (§2) The test organisms were then inoculated into test tubes containing approximately 3 to 10 mL of test medium and the test tubes incubated overnight at 37° C. A sample of each overnight culture was placed in a test tube and diluted using the test medium until a reading of 95% transmittance was obtained in a conventional UV/visible spectrophotometer set to 560 nm. The adjusted cultures were then diluted 1:50 with test medium. These diluted cultures served as the inocula for the assays which follow and were used within 15 minutes of preparation.
# (§3) Next, 2-fold serial dilutions of each test compound in test medium were prepared in a 96-well microtiter plate using calibrated microdiluters attached to an automatic (hand-held) diluter (available from Dynatech Laboratories).
# (§4) Using sterile calibrated droppers or a multi-point dispenser, the diluted inoculum suspension was added to each of the wells in the plate. When inoculation was complete, the microtiter tray was covered with a plastic plate sealer to minimize evaporation. After the plate had been sealed, a hole was made above each well with a sterile 26-gauge syringe needle in order to allow gas exchange. If plate sealers were not available, the microtiter trays were stacked in groups of five or less with an empty tray on top. The microtiter trays were then incubated in a humidified chamber at 35°-37° C. for 48 hours or until growth was visible in the growth control wells.
# (§5) The minimum inhibitory concentration (MIC) was defined as the lowest concentration of test compound yielding no growth, a slight haze or sparsely isolated colonies on the inoculum spot as compared to the growth control containing no test compound.
# [2] = system: Torulopsis glabrata ATCC 15545; assay: In vitro antifungal MIC, Torulopsis glabrata ATCC 15545; type: cell-based; settings: Nakaseomyces glabratus
# Procedure: as §1, §2, §3, §4, §5
# [3] = in vivo, cited from earlier work
# [4] = system: Candida albicans CCH 442; assay: In vitro antifungal MIC, Candida albicans CCH 442; type: cell-based
# Procedure: as §1, §2, §3, §4, §5
# [5] = system: Candida albicans 579A; assay: In vitro antifungal MIC, Candida albicans 579A; type: cell-based
# Procedure: as §1, §2, §3, §4, §5
# [6] = system: fungi; settings: cited from earlier work
# [7] = system: Candida albicans ATCC 10231; assay: In vitro antifungal MIC, Candida albicans ATCC 10231; type: cell-based
# Procedure: as §1, §2, §3, §4, §5
# [8] = system: Candida albicans ATCC 38247; assay: In vitro antifungal MIC, Candida albicans ATCC 38247; type: cell-based
# Procedure: as §1, §2, §3, §4, §5
# [9] = system: Aspergillus niger ATCC 16404; assay: In vitro antifungal MIC, Aspergillus niger ATCC 16404; type: cell-based
# Procedure: as §1, §2, §3, §4, §5
# [10] = system: kidney function; settings: patients treated with amphotericin B; cited from earlier work
# [11] = system: Candida albicans ATCC 62376; assay: In vitro antifungal MIC, Candida albicans ATCC 62376; type: cell-based
# Procedure: as §1, §2, §3, §4, §5
# [12] = in vivo; cited from earlier work
# [13] = system: Candida kefyr ATCC 28838; assay: In vitro antifungal MIC, Candida kefyr ATCC 28838; type: cell-based; settings: Kluyveromyces marxianus
# Procedure: as §1, §2, §3, §4, §5
# [14] = system: Candida tropicalis NRRL-Y-112; assay: In vitro antifungal MIC, Candida tropicalis NRRL-Y-112; type: cell-based
# Procedure: as §1, §2, §3, §4, §5
# [15] = system: biosynthesis of testosterone; settings: cited from earlier work
# [16] = ATCC34140, Cryptococcus albidus ATCC 34140, 35°-37° C., 48 hours, read-out: MIC
# [17] = ATCC15545, Torulopsis glabrata ATCC 15545, 35°-37° C., 48 hours, read-out: MIC
# [18] = CCH442, Candida albicans CCH 442, 35°-37° C., 48 hours, read-out: MIC
# [19] = Candida albicans 579A, 35°-37° C., 48 hours, read-out: MIC
# [20] = ATCC10231, Candida albicans ATCC 10231, 35°-37° C., 48 hours, read-out: MIC
# [21] = ATCC38247, Candida albicans ATCC 38247, 35°-37° C., 48 hours, read-out: MIC
# [22] = ATCC16404, Aspergillus niger ATCC 16404, 35°-37° C., 48 hours, read-out: MIC
# [23] = ATCC62376, Candida albicans ATCC 62376, 35°-37° C., 48 hours, read-out: MIC
# [24] = ATCC28838, Candida kefyr ATCC 28838, 35°-37° C., 48 hours, read-out: MIC
# [25] = NRRLY112, Candida tropicalis NRRL-Y-112, 35°-37° C., 48 hours, read-out: MIC
SMILES,"MIC [1, 16]","MIC [2, 17]","MIC [4, 18]","MIC [5, 19]","MIC [7, 20]","MIC [8, 21]","MIC [9, 22]","MIC [11, 23]","MIC [13, 24]","MIC [14, 25]",also measured
"C[C@@H]1[C@H](O)[C@@H](C)/C=C/C=C/C=C/C=C/C=C/C=C/C=C/[C@H](O[C@@H]2O[C@H](C)[C@@H](O)[C@H](N)[C@@H]2O)C[C@@H]2O[C@](O)(C[C@@H](O)C[C@@H](O)[C@H](O)CC[C@@H](O)C[C@@H](O)CC(=O)O[C@H]1C)C[C@H](O)[C@H]2C(=O)O [Amphotericin B, reference compound]",–,–,–,–,–,–,–,–,–,–,"MIC ([1]; ATCC34140, 48 h): 3.12 µg/mL; MIC ([2]; ATCC15545, 48 h): 3.12 µg/mL; oral bioavailability ([3]; po): poor; MIC ([4]; Candida albicans, CCH442, 48 h): 1.56 µg/mL; MIC ([5]; Candida albicans, 579A, 48 h): 1.56 µg/mL; fungistatic/fungicidal action [6]: fungicidal; MIC ([7]; Candida albicans, ATCC10231, 48 h): 1.56 µg/mL; MIC ([8]; Candida albicans, ATCC38247, 48 h): 12.5 µg/mL; MIC ([9]; Aspergillus niger, ATCC16404, 48 h): 3.12 µg/mL; patients experiencing impaired kidney function [10]: 80%; MIC ([11]; Candida albicans, ATCC62376, 48 h): 1.56 µg/mL; mammalian toxicity [12]: considerable; untoward effects [12]: anaphylaxis, thrombocytopenia, flushing, generalized pain, convulsions, chills, fever, phlebitis, headache, anemia, anorexia and decreased kidney function; MIC ([13]; ATCC28838, 48 h): 1.56 µg/mL; MIC ([14]; Candida tropicalis, NRRLY112, 48 h): 1.56 µg/mL"
[O-][S+]1c2ccccc2SN1c1ccc2c(c1)OCO2 (stereo not drawn) [Example 31],50 µg/mL,12.5 µg/mL,25 µg/mL,25 µg/mL,12.5 µg/mL,25 µg/mL,12.5 µg/mL,25 µg/mL,12.5 µg/mL,50 µg/mL,–
"[O-][S+]1c2ccccc2SN1Cc1ccc(Cl)cc1Cl (stereo not drawn) [Example 36, 2-(2,4-dichlorophenyl)methyl-1,3,2-benzodithiazole-1-oxide]",25 µg/mL,3.12 µg/mL,6.25 µg/mL,1.56 µg/mL,3.12 µg/mL,12.5 µg/mL,3.12 µg/mL,3.12 µg/mL,0.78 µg/mL,3.12 µg/mL,–
"[O-][S+]1c2ccccc2SN1CCCc1ccccc1 (stereo not drawn) [Example 39, 2-(3-phenylpropyl)-1,3,2-benzodithiazole-1-oxide]",25 µg/mL,3.12 µg/mL,3.12 µg/mL,3.12 µg/mL,1.56 µg/mL,12.5 µg/mL,1.56 µg/mL,3.12 µg/mL,1.56 µg/mL,6.25 µg/mL,–
CC(=O)N1CCN(c2ccc(OCC3COC(Cn4ccnc4)(c4ccc(Cl)cc4Cl)O3)cc2)CC1 (stereo not drawn) [Ketoconazole],–,–,–,–,–,–,–,–,–,–,oral activity ([3]; po): orally active; absorption into the cerebrospinal fluid [3]: poorly absorbed; fungistatic/fungicidal action [6]: fungistatic and not fungicidal; inhibition of testosterone biosynthesis [15]: inhibitors of the biosynthesis of testosterone; hepatotoxicity [12]: hepatotoxins

# The next lines start with results.
"MIC [1, 16]","MIC [2, 17]","MIC [4, 18]","MIC [5, 19]","MIC [7, 20]","MIC [8, 21]","MIC [9, 22]","MIC [11, 23]","MIC [13, 24]","MIC [14, 25]",SMILES,also measured
25 µg/mL,25 µg/mL,25 µg/mL,12.5 µg/mL,25 µg/mL,25 µg/mL,12.5 µg/mL,25 µg/mL,12.5 µg/mL,25 µg/mL,"[O-][S+]1c2ccccc2SN1c1ccccc1 (stereo not drawn) [Example 30, 2-phenyl-1,3,2-benzodithiazole-1-oxide]",–
6.25 µg/mL,50 µg/mL,0.78 µg/mL,0.78 µg/mL,1.56 µg/mL,1.56 µg/mL,0.39 µg/mL,0.78 µg/mL,0.78 µg/mL,50 µg/mL,"[O-][S+]1c2ccccc2SN1Cc1cccs1 (stereo not drawn) [Example 34, 2-(2-thienyl)methyl-1,3,2-benzodithiazole-1-oxide]",–
6.25 µg/mL,1.56 µg/mL,0.78 µg/mL,0.78 µg/mL,0.78 µg/mL,6.25 µg/mL,0.39 µg/mL,0.78 µg/mL,0.39 µg/mL,1.56 µg/mL,"[O-][S+]1c2ccccc2SN1Cc1ccccc1 (stereo not drawn) [Example 35, 2-benzyl-1,3,2-benzodithiazole-1-oxide]",–
12.5 µg/mL,6.25 µg/mL,6.25 µg/mL,3.12 µg/mL,1.56 µg/mL,3.12 µg/mL,3.12 µg/mL,6.25 µg/mL,1.56 µg/mL,6.25 µg/mL,"CN(C)c1ccc(CN2Sc3ccccc3[S+]2[O-])cc1 (stereo not drawn) [Example 37, 2-(4-(dimethylamino)phenyl)methyl-1,3,2-benzodithiazole-1-oxide]",–
